Patent publication US20260191887A1, “METHODS OF TREATING INFLAMMATION” (THERAPEUTIKOS, INC., priority 2022, published 2026)

Experiments:
[1] = tested on: primary human chondrocytes; assay: WST-1 cell proliferation assay in primary human chondrocytes with IL-1β; type: cell-based; conditions: IL-1β 5 ng/mL, concentrations up to 5 mM, n=6
From the text: Normal cartilage tissues. Articular cartilages were harvested from the femoral condyles and the tibial plateaus, which were obtained from autopsy services at the hospital of UVA and approved by the Institutional Review Board. All tissue samples were graded according to a modified Mankin scale, and only cartilages without evidence of osteoarthritis were used as a source of chondrocytes. The interval between death and the time the cartilages were harvested from these knee joints in the laboratory were at least 24 h and ranged up to 96 h. Cartilage shavings were harvested at the operation room and placed in tissue culture medium (DMEM, 10% FBS, penicillin, streptomycin), and shipped to the laboratory at 4° C. The tissues were processed in the laboratory within 24 h after harvest.
Chondrocytes were isolated from the cartilage by collagenase digestion and maintained in continuous monolayer cultures in DMEM containing 10% FBS. Cell viability after chondrocyte isolation by collagenase digestion of normal cartilage was >95%, determined by the typan blue stain (Sigma-Aldrich). Experiments were performed with primary or first passage cells. When necessary, trypsin will be used for cell passage.
Human chondrocytes were seeded in a 96-well plate (5×10^4/well) and incubated with culture medium overnight. […]

IL1β = assay: RT-PCR of IL1β mRNA in LPS-activated RAW264.7 macrophages; type: cell-based, mouse; conditions: LPS 100 ng/mL; NDX1 0.1 mM and 0.5 mM, NAG 0.5 mM, NDX2 0.5 mM; n=4
Protocol: (§1) Mouse RAW264.7 macrophage cell line (ATCC; Manassas, VA, USA) was maintained in DMEM culture medium containing 10% FBS and 1% antibiotic mix. For cell treatment, the test drugs at different doses were added to the culture 0.5 h prior to addition of 100 ng/mL LPS (Sigma-Aldrich Co., St Louis, MO, USA) and then cells were co-treated with LPS for 24 hours.
Total RNA was purified using an RNeasy kit (QIAGEN Sciences, Valencia, CA) according to the protocol provided by the manufacturer, and was stored at −80° C. Synthesis of cDNA from total RNA and the quantitative PCR were carried out by using the iScript™ cDNA synthesis kit and the iQ™ SYBR Green Supermix kit (Bio-Rad Laboratories, Hercules, CA), respectively. The target genes included iNOS, IL-6 and IL-1β. Gene of 18s ribosomal RNA was used as an internal control. The threshold cycle (CT) value was calculated from amplification plots. Data was analyzed using the 2-ΔΔCT method with 18s rRNA serving as the reference. Gene expression was normalized to the control group in each experiment and represented as fold of change. […]

[2] = tested on: mouse macrophage cell line RAW264.7 cells; assay: WST-1 cytotoxicity assay in RAW264.7 cells; type: cell-based; conditions: concentrations up to 5 mM, 24 h, n=8
Protocol: Mouse RAW264.7 macrophage cell line (ATCC; Manassas, VA, USA) was maintained in DMEM culture medium containing 10% FBS and 1% antibiotic mix. For cell treatment, the test drugs at different doses were added to the culture 0.5 h prior to addition of 100 ng/mL LPS (Sigma-Aldrich Co., St Louis, MO, USA) and then cells were co-treated with LPS for 24 hours. Macrophages in the control group and the treatment groups was seeded on a 96-well plate for 24 hrs and the cell number was counted using the WST-1 kit (Fisher Scientific). After removal of the supernatant, 150 μL of the fresh medium was added into each well. Then 15 μL of the Cell Proliferation Reagent WST-1 was added and incubated with cells for 3 hrs in dark with a humidified atmosphere of 5% carbon dioxide at 37° C. Each sample was determined at 450 nm on a microplate reader. No drugs were added in the non-treatment group (NT). There were eight repeats in each group (n=8). The experiment was duplicated.

nitric oxide = assay: Griess nitrite production assay in LPS-activated RAW264.7 macrophages; type: cell-based, mouse; conditions: LPS 100 ng/mL; NDX1 0.2, 1 and 5 mM, NDX2 0.5 and 5 mM, NAG 0.5-5 mM; n=6
Protocol: as §1
The Griess reagent system is based on the chemical reaction which uses sulfanilamide and N-1-napthylethylenediamine dihydrochloride (NED) under acidic (phosphoric acid) conditions. This system detects nitrite production. In the present experiments, nitric oxide detection was performed by a commercial kit (Promega Corporation, Madison, WI, USA), according to the manufacturer's manual. Briefly, all experimental samples and standards containing the dilution series for the nitrite standard reference curve were mixed with 50 μL of the sulfanilamide solution and incubated 10 mins at room temperature without light in a 96-well plate. Then 50 μL of the NED Solution was added to each well and incubated 10 mins at room temperature without light. The optical density (OD) was determined at 530 nm on a microplate reader within 30 mins. No LPS and the other drugs were added in the non-treatment group (NT). The experiment was duplicated. There were six repeats in each group (n=6). […].

## CC(=O)N[C@H]1C(O)O[C@H](CO)[C@@H](O)[C@@H]1O (stereo partly shown) [NAG, N-acetyl glucosamine]
[1]
  effect on cell growth / toxicity (WST-1): could prevent inhibition of cell proliferation induced by IL-1β
IL1β
  inhibition of IL1β mRNA expression (RT-PCR): could inhibit IL1β
[2]
  toxicity / cell growth (WST-1): less toxicity than NDX1
Nitric oxide
  inhibition of nitric oxide (nitrite) production: couldn't
